System: MEK1/2 phosphorylation (Ser217/221) in HT-29 cells
Experiment: Colon cancer cell HT-29 intracellular MEK phosphorylation inhibitory action in vitro
Format: cell-based
Details: Homo sapiens, 2 hr treatment, Western blot of phosphorylated MEK1/2
Experimental: Colon Cancer Cell HT-29 Intracellular MEK Phosphorylation Inhibitory Action in vitro
A cell suspension (500 μL) of human colon cancer cell HT-29 was plated in a 48-well plate (100,000 cells/well), and the cells were cultured overnight at 37° C. in the presence of 5% CO2, treated with a test compound (250 μL/well) diluted in 3-fold dilution series and cultured for two more hours. After 2 hr, the culture medium containing the test compound was removed, and the cells were lysed with SDS sample buffer (100 μL/well) and heated at 95° C. for 5 min. Thereafter, the cells were applied to SDS-PAGE, and the protein was transferred onto Sequi-Blot™ PVDF Membrane (Bio-Rad) by the Western blot method. The cells were blocked with a block-Ace solution (Snow Brand Milk Products Co., Ltd) dissolved in phosphate buffer to 5% W/V, and reacted overnight with anti-phosphorylated MEK1/2 (Ser217/221) (Cell signaling #9121) diluted 1000-fold with phosphate buffer containing 0.4% block-Ace. The membrane was washed with phosphate buffer containing 0.1% Tween 20 (Wako Pure Chemical Industries, Ltd.), and reacted at room temperature for 1 hr with HRP labeled rabbit IgG polyclonal antibody (Cell signaling #7074) diluted 1000-fold with phosphate buffer containing 0.4% block-Ace. The membrane was washed in the same manner as above, chemical luminescence of a phosphorylated MEK1/2 protein labeled with the antibody, which was caused by ECL-plus Detection Reagent (Amersham bioscience), was detected by Luminescent Image Analyzer LAS-1000 (FUJIFILM Corporation).

Structure (SMILES) | IC50 [nM]
Cc1ccc(NC(=O)c2cccc(C(F)(F)F)c2)cc1Oc1ccc2nc(NC(=O)CO)sc2n1 [Example C9, N-(3-{[2-(glycoloylamino)[1,3]thiazolo[5,4-b]pyridin-5-yl]oxy}-4-methylphenyl)-3-(trifluoromethyl)benzamide] | < 500
Cc1ccc(NC(=O)c2cccc(C3(C#N)CC3)c2)cc1Oc1ccc2nc(NC(=O)C3CC3)sc2n1 [Example C16, 3-(1-cyanocyclopropyl)-N-[3-({2-[(cyclopropylcarbonyl)amino][1,3]thiazolo[5,4-b]pyridin-5-yl}oxy)-4-methylphenyl]benzamide] | < 500
N#CC1(c2cccc(C(=O)Nc3cccc(Oc4ccc5nc(NC(=O)C6CC6)sc5n4)c3)c2)CC1 [Example C26, 3-(1-cyanocyclopropyl)-N-[3-({2-[(cyclopropylcarbonyl)amino][1,3]thiazolo[5,4-b]pyridin-5-yl}oxy)phenyl]benzamide] | < 500
CN(c1cccc(NC(=O)c2cccc(C(F)(F)F)c2)c1)c1ccc2nc(NC(=O)C3CC3)sc2n1 [Example C40, N-{3-[{2-[(cyclopropylcarbonyl)amino][1,3]thiazolo[5,4-b]pyridin-5-yl}(methyl)amino]phenyl}-3-(trifluoromethyl)benzamide] | < 500
CC(=O)Nc1nc2ccc(Oc3ccc(F)c(NC(=O)c4cccc(C5(C#N)CC5)c4Cl)c3)nc2s1 [Example C65, N-(5-{[2-(acetylamino)[1,3]thiazolo[5,4-b]pyridin-5-yl]oxy}-2-fluorophenyl)-2-chloro-3-(1-cyanocyclopropyl)benzamide] | < 500
CN(c1cccc(NC(=O)c2cccc(C(F)(F)F)c2)c1)c1ncc2nc(NC(=O)C3CC3)sc2n1 [Example D2, N-{3-[{2-[(cyclopropylcarbonyl)amino][1,3]thiazolo[5,4-d]pyrimidin-5-yl}(methyl)amino]phenyl}-3-(trifluoromethyl)benzamide] | < 500

Results, then the molecule that gave them:

IC50 [nM] | Structure (SMILES)
< 500 | COc1ccc(NC(=O)c2cccc(C3(C#N)CC3)c2)cc1Oc1ccc2nc(NC(=O)CN3CCN(C)CC3)sc2n1 [Example C2, 3-(1-cyanocyclopropyl)-N-{4-methoxy-3-[(2-{[(4-methylpiperazin-1-yl)acetyl]amino}[1,3]thiazolo[5,4-b]pyridin-5-yl)oxy]phenyl}benzamide]
< 500 | Cc1ccc(NC(=O)c2cccc(C(F)(F)F)c2)cc1Oc1ccc2nc(NC(=O)CN3CCN(C)CC3)sc2n1 [Example C11, N-{4-methyl-3-[(2-{[(4-methylpiperazin-1-yl)acetyl]amino}[1,3]thiazolo[5,4-b]pyridin-5-yl)oxy]phenyl}-3-(trifluoromethyl)benzamide]
< 500 | Cc1ccc(NC(=O)c2cccc(C(C)(C)C#N)c2)cc1Oc1ccc2nc(NC(=O)CO)sc2n1 [Example C13, 3-(1-cyano-1-methylethyl)-N-(3-{[2-(glycoloylamino)[1,3]thiazolo[5,4-b]pyridin-5-yl]oxy}-4-methylphenyl)benzamide]
< 500 | Cc1ccc(Oc2ccc3nc(NC(=O)CN4CCN(C)CC4)sc3n2)cc1NC(=O)c1cccc(C(C)(C)C#N)c1 [Example C35, 3-(1-cyano-1-methylethyl)-N-{2-methyl-5-[(2-{[(4-methylpiperazin-1-yl)acetyl]amino}[1,3]thiazolo[5,4-b]pyridin-5-yl)oxy]phenyl}benzamide]
< 500 | CN1CCN(CC(=O)Nc2nc3ccc(Oc4cc(NC(=O)c5cccc(C(C)(C)C#N)c5)ccc4Cl)nc3s2)CC1 [Example C51]
< 500 | Cc1ccc(NC(=O)c2cccc(C(C)(C)C#N)c2)cc1Oc1ccc2nc(NC(=O)/C=C/c3ccc(Cl)cc3)sc2n1 [Example C99, N-{3-[(2-{[(2E)-3-(4-chlorophenyl)prop-2-enoyl]amino}[1,3]thiazolo[5,4-b]pyridin-5-yl)oxy]-4-methylphenyl}-3-(1-cyano-1-methylethyl)benzamide]

Target: T1, BRAF (V600E) (Homo sapiens, UniProt P15056, V600E)
T1 construct: area encoding the BRAF kinase domain region, so that the protein contains an N-terminal Flag; made in house; host or cells: SF-21 insect cells infected with recombinant baculovirus BAC-V600E
Experiment: Determination of BRAF (V600E) kinase inhibitory activity
Format: biochemical
Details: test compound 1.0 μM; substrate GST-MEK1 (K96R); [γ-32P]ATP; read-out: Inhibitory rate (%) at 1.0 μM
Experimental: Determination of BRAF (V600E) Kinase Inhibitory Activity
A test compound (2.5 μL) dissolved in dimethyl sulfoxide (DMSO) was added to 37.5 μL of a reaction solution (25 mM HEPES (pH 7.5), 10 mM magnesium acetate, 1 mM dithiothreitol) containing BRAF (V600E) enzyme (30 ng) and recombinant type protein GST-MEK1 (K96R) 250 ng, and the mixture was incubated at room temperature for 10 min. ATP solution (10 μL, 2.5 μM ATP, 0.1 μCi [γ-^32P]ATP) was added to the obtained mixture, and the mixture was reacted at room temperature for 20 min. The reaction was quenched by adding 50 μL of ice-cooled 20% trichloroacetic acid (Wako Pure Chemical Industries, Ltd.). The reaction solution was allowed to stand at 4° C. for 30 min, and the acid-precipitable fraction was transferred to GF/C filter plate (Millipore Corporation) using cell harvester (PerkinElmer). The plate was dried at 45° C. for 60 min, and 40 μL of MicroScinti 0 (PerkinElmer) was added thereto. The radioactivity was measured using TopCount (PerkinElmer). The kinase inhibitory rate (%) of the test compound was calculated by the following formula: Inhibitory rate (%)=(1−(count of test compound−blank)÷(control−blank))×100
The count of the solution reacted without addition of the compound was used as a “control”, and the count of the solution without the compound and enzyme was used as a “blank”.

T1 sequence (P15056 457-717 V600E limits assumed): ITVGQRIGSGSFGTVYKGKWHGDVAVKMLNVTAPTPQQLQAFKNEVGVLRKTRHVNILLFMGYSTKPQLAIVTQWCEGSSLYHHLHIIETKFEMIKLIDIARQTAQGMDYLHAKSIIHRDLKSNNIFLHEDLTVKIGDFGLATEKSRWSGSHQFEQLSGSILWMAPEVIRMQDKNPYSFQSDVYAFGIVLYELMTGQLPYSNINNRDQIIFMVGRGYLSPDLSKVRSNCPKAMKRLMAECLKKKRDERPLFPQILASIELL

Structure (SMILES) | inhibition at 1 µM [%]
CC(C)(C#N)c1cccc(C(=O)Nc2cc(Oc3ccc4nc(NC(=O)C5CC5)sc4n3)c(Cl)cc2F)c1 [Example C60, N-[4-chloro-5-({2-[(cyclopropylcarbonyl)amino][1,3]thiazolo[5,4-b]pyridin-5-yl}oxy)-2-fluorophenyl]-3-(1-cyano-1-methylethyl)benzamide] | 100
CC(C)(C#N)c1cccc(C(=O)Nc2cc(Oc3ccc4nc(NC(=O)C5CC5)sc4n3)ccc2F)c1Cl [Example C63, 2-chloro-3-(1-cyano-1-methylethyl)-N-[5-({2-[(cyclopropylcarbonyl)amino][1,3]thiazolo[5,4-b]pyridin-5-yl}oxy)-2-fluorophenyl]benzamide] | 101
N#CC1(c2cccc(C(=O)Nc3cc(Oc4ccc5nc(NC(=O)C6CC6)sc5n4)c(F)cc3F)c2Cl)CC1 [Example C75, 2-chloro-3-(1-cyanocyclopropyl)-N-[5-({2-[(cyclopropylcarbonyl)amino][1,3]thiazolo[5,4-b]pyridin-5-yl}oxy)-2,4-difluorophenyl]benzamide] | 100
CC(=O)Nc1nc2cnc(N(C)c3cccc(NC(=O)c4cccc(C(F)(F)F)c4)c3)nc2s1 [Example D1, N-{3-[[2-(acetylamino)[1,3]thiazolo[5,4-d]pyrimidin-5-yl](methyl)amino]phenyl}-3-(trifluoromethyl)benzamide] | 98
